Laboratory results: the supplement of paper PMC4862054

tested on: SK-BR-3; assay: normalised viability (% of control), CellTiter-Blue; higher = more viable cells (100 = DMSO, 0 = benzethonium chloride kill control); details: incubation time: 72 h
In short: (§1)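 Seeded at 20 µl suspension per well onto compound-loaded 384-well plates, breast cancer cell lines were incubated 72 h. CellTiter-Blue fluorescence at 560/590 nm was then read, with each plate normalised to vehicle (100) and a positive kill control (0). Normalised viability is reported at a single listed concentration of the series.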

Compound	normalised viability
C[C@@H]1C=C2C(=O)O[C@@H]3CC[C@H](C1)[C@]23O [Galiellalactone] (5 nM)	94%

tested on: CAL-85-1; assay: as above; details: incubation time: 72 h
In short: as §1

Compound	normalised viability
CCS(=O)(=O)c1cccc(-c2cc(C(=O)NC3CCN(C)CC3)c(C)c3[nH]c4ncc(C)cc4c23)c1 [TAK-901] (0.1 nM)	83.7%
C#Cc1cccc(Nc2ncnc3cc(OC)c(OCCCCCCC(=O)NO)cc23)c1 [CUDC-101] (1 nM)	77.3%
CC(C)C[C@H](NC(=O)[C@H](Cc1ccccc1)NC(=O)c1cnccn1)B(O)O [Bortezomib] (0.1 nM)	104%
COc1ccc(C2=N[C@@H](c3ccc(Cl)cc3)[C@@H](c3ccc(Cl)cc3)N2C(=O)N2CCNC(=O)C2)c(OC(C)C)c1 [Nutlin-3] (1 nM)	90.5%
Cn1c(=O)c(F)c(Nc2ccc(I)cc2F)c2c(=O)n(C[C@@H](O)CO)cnc21 [TAK-733] (0.1 nM)	90.7%
COC(=O)C[C@](O)(CCCC(C)(C)O)C(=O)O[C@@H]1C(OC)=C[C@]23CCCN2CCc2cc4c(cc2[C@H]13)OCO4 [Omacetaxine] (1 nM)	90.6%
CC(C)(C)c1cc(NC(=O)Nc2ccc(-c3cn4c(n3)sc3cc(OCCN5CCOCC5)ccc34)cc2)no1 [Quizartinib] (0.1 nM)	89.4%
C[C@@H]1C=C2C(=O)O[C@@H]3CC[C@H](C1)[C@]23O [Galiellalactone] (5 nM)	94.9%

tested on: BT-474; assay: as above; details: incubation time: 72 h
In short: as §1

Compound	normalised viability
CCS(=O)(=O)c1cccc(-c2cc(C(=O)NC3CCN(C)CC3)c(C)c3[nH]c4ncc(C)cc4c23)c1 [TAK-901] (0.1 nM)	76.6%
C#Cc1cccc(Nc2ncnc3cc(OC)c(OCCCCCCC(=O)NO)cc23)c1 [CUDC-101] (1 nM)	108%
CC(C)C[C@H](NC(=O)[C@H](Cc1ccccc1)NC(=O)c1cnccn1)B(O)O [Bortezomib] (0.1 nM)	75.1%
COc1ccc(C2=N[C@@H](c3ccc(Cl)cc3)[C@@H](c3ccc(Cl)cc3)N2C(=O)N2CCNC(=O)C2)c(OC(C)C)c1 [Nutlin-3] (1 nM)	110%
Cn1c(=O)c(F)c(Nc2ccc(I)cc2F)c2c(=O)n(C[C@@H](O)CO)cnc21 [TAK-733] (0.1 nM)	68.7%
COC(=O)C[C@](O)(CCCC(C)(C)O)C(=O)O[C@@H]1C(OC)=C[C@]23CCCN2CCc2cc4c(cc2[C@H]13)OCO4 [Omacetaxine] (1 nM)	101%
CC(C)(C)c1cc(NC(=O)Nc2ccc(-c3cn4c(n3)sc3cc(OCCN5CCOCC5)ccc34)cc2)no1 [Quizartinib] (0.1 nM)	115%
C[C@@H]1C=C2C(=O)O[C@@H]3CC[C@H](C1)[C@]23O [Galiellalactone] (5 nM)	105%

tested on: HCC1599; assay: as above; details: incubation time: 72 h
In short: as §1

Compound	normalised viability
CCS(=O)(=O)c1cccc(-c2cc(C(=O)NC3CCN(C)CC3)c(C)c3[nH]c4ncc(C)cc4c23)c1 [TAK-901] (0.1 nM)	87%
C#Cc1cccc(Nc2ncnc3cc(OC)c(OCCCCCCC(=O)NO)cc23)c1 [CUDC-101] (1 nM)	115%
CC(C)C[C@H](NC(=O)[C@H](Cc1ccccc1)NC(=O)c1cnccn1)B(O)O [Bortezomib] (0.1 nM)	122%
COc1ccc(C2=N[C@@H](c3ccc(Cl)cc3)[C@@H](c3ccc(Cl)cc3)N2C(=O)N2CCNC(=O)C2)c(OC(C)C)c1 [Nutlin-3] (1 nM)	91.6%
Cn1c(=O)c(F)c(Nc2ccc(I)cc2F)c2c(=O)n(C[C@@H](O)CO)cnc21 [TAK-733] (0.1 nM)	73.2%
COC(=O)C[C@](O)(CCCC(C)(C)O)C(=O)O[C@@H]1C(OC)=C[C@]23CCCN2CCc2cc4c(cc2[C@H]13)OCO4 [Omacetaxine] (1 nM)	78.4%
CC(C)(C)c1cc(NC(=O)Nc2ccc(-c3cn4c(n3)sc3cc(OCCN5CCOCC5)ccc34)cc2)no1 [Quizartinib] (0.1 nM)	89.4%
C[C@@H]1C=C2C(=O)O[C@@H]3CC[C@H](C1)[C@]23O [Galiellalactone] (5 nM)	88.1%

tested on: MDA-MB-231; assay: as above; details: incubation time: 72 h
In short: as §1

Compound	normalised viability
CCS(=O)(=O)c1cccc(-c2cc(C(=O)NC3CCN(C)CC3)c(C)c3[nH]c4ncc(C)cc4c23)c1 [TAK-901] (0.1 nM)	104%
C#Cc1cccc(Nc2ncnc3cc(OC)c(OCCCCCCC(=O)NO)cc23)c1 [CUDC-101] (1 nM)	94.9%
CC(C)C[C@H](NC(=O)[C@H](Cc1ccccc1)NC(=O)c1cnccn1)B(O)O [Bortezomib] (0.1 nM)	91.9%
COc1ccc(C2=N[C@@H](c3ccc(Cl)cc3)[C@@H](c3ccc(Cl)cc3)N2C(=O)N2CCNC(=O)C2)c(OC(C)C)c1 [Nutlin-3] (1 nM)	101%
Cn1c(=O)c(F)c(Nc2ccc(I)cc2F)c2c(=O)n(C[C@@H](O)CO)cnc21 [TAK-733] (0.1 nM)	105%
COC(=O)C[C@](O)(CCCC(C)(C)O)C(=O)O[C@@H]1C(OC)=C[C@]23CCCN2CCc2cc4c(cc2[C@H]13)OCO4 [Omacetaxine] (1 nM)	97.3%
CC(C)(C)c1cc(NC(=O)Nc2ccc(-c3cn4c(n3)sc3cc(OCCN5CCOCC5)ccc34)cc2)no1 [Quizartinib] (0.1 nM)	105%
C[C@@H]1C=C2C(=O)O[C@@H]3CC[C@H](C1)[C@]23O [Galiellalactone] (5 nM)	93.7%

tested on: CAL-120; assay: normalised response (% of control), CellTiter-Glo; higher = more viable cells (100 = DMSO, 0 = benzethonium chloride kill control); details: incubation time: 72 h
In short: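 A 20 µl suspension of breast cancer cells was seeded into each well of 384-well plates containing compound at 5 concentrations in 10-fold steps over a compound-specific 10,000-fold range. After 72 h incubation, CellTox Green fluorescence (485/520 nm) was read first, and CellTiter-Glo luminescence was read after 10 min at room temperature. Each plate was normalised against 0.1 % DMSO (100) and a positive kill control (0), and each value is the normalised signal at one concentration.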

Compound	normalised response
CCS(=O)(=O)c1cccc(-c2cc(C(=O)NC3CCN(C)CC3)c(C)c3[nH]c4ncc(C)cc4c23)c1 [TAK-901] (0.1 nM)	97.4%
C#Cc1cccc(Nc2ncnc3cc(OC)c(OCCCCCCC(=O)NO)cc23)c1 [CUDC-101] (1 nM)	100%
CC(C)C[C@H](NC(=O)[C@H](Cc1ccccc1)NC(=O)c1cnccn1)B(O)O [Bortezomib] (0.1 nM)	102%
COc1ccc(C2=N[C@@H](c3ccc(Cl)cc3)[C@@H](c3ccc(Cl)cc3)N2C(=O)N2CCNC(=O)C2)c(OC(C)C)c1 [Nutlin-3] (1 nM)	94.6%
